Source: PMC11990670, “Exploring the Volatility, Phase Transitions, and Solubility Properties of Five Halogenated Benzaldehydes” (Molecules, 2025)
“And” between values parts separate entries of the source, which are not always exact repeats. Equal entries are not always repeated. Marks after values point to notes of the source that are not given here.

Columns and labels:
[1] = Vapor pressures of crystalline and liquid phases, static method with capacitance diaphragm gauge; type: physicochemical
Text: A previously described and tested static apparatus was used to measure the vapor pressures of the condensed phases (both crystalline and liquid) of the five compounds studied. This installation employs MKS capacitance diaphragm absolute gauges, operating at self-regulated constant temperatures. Our lab is equipped with three pressure gauges. Gauge I, a Baratron 631A01TBEH (MKS instruments, Andover, MA, USA) (Tgauge = 423 K), measures pressures in the range of 0.5 to 1.3 × 10^2 Pa and operates within a temperature range of 253 to 413 K. Gauge II, the instrument used in this study, is a Baratron 631A11TBFP (MKS instruments, Andover, MA, USA) (Tgauge = 473 K), capable of measuring pressures from 0.5 to 1.3 × 10^3 Pa within a temperature range of 253 to 433 K and gauge III, a Baratron 631D02T8FP (MKS instruments, Andover, MA, USA) (Tgauge = 473 K), designed to measure pressures between 0.5 Pa and 2.6 × 10^2 Pa, also within a temperature range of 253 to 433 K. The temperatures of the samples were measured using a Pt100 platinum resistance thermometer, calibrated by comparison with a standard platinum resistance thermometer (SPRT: Tinsley Precision Instruments Ltd, London, England). To prevent vapor condensation, the tubing connecting the cell containing the condensed sample to the pressure gauge is maintained at a temperature higher than that of the sample but lower than that of the gauge. The uncertainty in temperature measurements is estimated to be u(T/K) = ±0.01, and the expanded uncertainties (0.95 confidence level, k = 2) in pressure measurements are given by the expression U(p/Pa) = 0.1 + 0.0050 (p/Pa) for the gauge used. Samples were thoroughly degassed before starting the vapor pressure measurements, ensuring consistent readings at specific temperatures and eliminating any residual volatile substances, including water.

[2] = Gibbs energy of hydration and Henry's law volatility constant calculated from sublimation and solubility data; settings: 25 °C; for Gibbs energy of hydration ΔhydrGm°: calculated by Equation (4); for log10(KHpc/kPa·m^3·mol^−1) Henry's law volatility constant: calculated by Equation (6); for KHpc×10^3 Henry's law volatility constant: value is KHpc multiplied by 10^3
Experimental: (§1) The concentration was measured by absorbances at 260 nm for 4-chlorobenzaldehyde, 263 nm for 4-bromobenzaldehyde and 2,4-dichlorobenzaldehyde, 297 nm for 2,6-dichlorobenzaldehyde, and 306 nm for 2,3-dichlorobenzaldehyde, using a Cary-60 UV–vis (Agilent) spectrophotometer. X-ray diffraction (XRD) and differential scanning calorimetry of residual solids were used to identify the eventual phase transformations. The purified samples of each compound studied were used for all experimental determinations, including the solubility measurements. After reaching the equilibrium, the residual solid was dried and analyzed using both DSC and XRD. The melting properties obtained from DSC were compared with those of the original purified sample, following the same procedure for the XRD analysis. […] As an example, the supporting information includes two thermograms and two XRD patterns for 2,4-dichlorobenzaldehyde (Figures S1 and S2). […] Equation (4) was derived from Equation (5), which is widely applicable to the solubility of solids.(4) ΔhydrGm°/kJ·mol^−1=9.17−5.71·log10(Scr/mol·m^−3)−ΔcrgGm°/kJ·mol^−1 (5) S=p^°/RTexpΔcrgGm°+ΔhydrGm°/−RT
The standard states in Equation (5) are p° = 1 × 10^5 Pa for ΔcrgGm° , c° = 1 mol·L^−1 for ΔhydrGm° and s° = 1 mol·m^−3 for solubility. Using the experimental results of ΔhydrGm° , calculated through Equation (4), the values of Henry’s law volatility constants, KHpc, were determined in the logarithm form by Equation (6), that was adapted from Modarressi et al..

[3] = pH of the saturated aqueous solutions; type: physicochemical; settings: saturated aqueous solution of the solubility experiment
Experimental: as §1
An excess amount of each compound was added to a known volume of water in triplicate. […] After stirring, the solid phase was allowed to settle for 2 h. The pH of the saturated solutions was measured using a Mettler Toledo (Greifensee, Switzerland) FiveEasy F20 pH Meter calibrated with standard aqueous solutions (pH 7.00 and 4.01 or 10.1). Those solutions were then filtered through a 0.22 μm syringe hydrophilic filter (13 mm, PTFE, Labfil, Zhejiang, China) and diluted to the required concentration. The concentration of the compounds, expressed in molarity, was measured by absorbances using a Cary-60 UV–vis spectrophotometer (Agilent Technologies, Santa Clara, CA, USA) at 298.15 K (single cell Peltier accessory, ±0.15 K). The results reported in Table 6 are averaged from at least three replicates. Calibration was performed using solutions of known concentrations of each substance in water. These solutions were prepared by adding a precise mass of the substance and a specific volume of the solvent to a flask, then mixing until the substance was fully dissolved. The absorbance of these solutions was measured, and calibration curves were created.

O=Cc1c(Cl)cccc1Cl [2,6-Dichlorobenzaldehyde]
vapor pressure p ([1]; crystalline phase, T = 292.72 K): 0.50 Pa
vapor pressure p ([1]; crystalline phase, T = 294.67 K): 0.63 Pa
vapor pressure p ([1]; crystalline phase, T = 296.72 K): 0.81 Pa
vapor pressure p ([1]; crystalline phase, T = 298.56 K): 1.00 Pa
vapor pressure p ([1]; crystalline phase, T = 300.60 K): 1.28 Pa
vapor pressure p ([1]; crystalline phase, T = 302.53 K): 1.58 Pa
vapor pressure p ([1]; crystalline phase, T = 304.58 K): 1.97 Pa
vapor pressure p ([1]; crystalline phase, T = 306.53 K): 2.49 Pa
vapor pressure p ([1]; crystalline phase, T = 308.53 K): 3.07 Pa
vapor pressure p ([1]; crystalline phase, T = 310.48 K): 3.74 Pa
vapor pressure p ([1]; crystalline phase, T = 312.49 K): 4.61 Pa
vapor pressure p ([1]; crystalline phase, T = 314.41 K): 5.68 Pa
vapor pressure p ([1]; crystalline phase, T = 316.45 K): 7.02 Pa
vapor pressure p ([1]; crystalline phase, T = 318.40 K): 8.62 Pa
vapor pressure p ([1]; crystalline phase, T = 320.45 K): 10.52 Pa
vapor pressure p ([1]; crystalline phase, T = 322.40 K): 12.77 Pa
vapor pressure p ([1]; crystalline phase, T = 324.42 K): 15.66 Pa
vapor pressure p ([1]; crystalline phase, T = 326.34 K): 18.87 Pa
vapor pressure p ([1]; crystalline phase, T = 328.34 K): 22.67 Pa
vapor pressure p ([1]; crystalline phase, T = 330.30 K): 27.33 Pa
vapor pressure p ([1]; crystalline phase, T = 332.29 K): 32.89 Pa
vapor pressure p ([1]; crystalline phase, T = 334.27 K): 39.51 Pa
vapor pressure p ([1]; crystalline phase, T = 336.23 K): 46.91 Pa
vapor pressure p ([1]; crystalline phase, T = 338.20 K): 56.28 Pa
vapor pressure p ([1]; liquid phase, T = 344.17 K): 91.46 Pa
vapor pressure p ([1]; liquid phase, T = 346.13 K): 103.7 Pa
vapor pressure p ([1]; liquid phase, T = 348.09 K): 118.4 Pa
vapor pressure p ([1]; liquid phase, T = 350.07 K): 133.6 Pa
vapor pressure p ([1]; liquid phase, T = 352.10 K): 151.3 Pa
vapor pressure p ([1]; liquid phase, T = 354.09 K): 168.0 Pa
vapor pressure p ([1]; liquid phase, T = 356.04 K): 190.2 Pa
vapor pressure p ([1]; liquid phase, T = 358.03 K): 212.4 Pa
vapor pressure p ([1]; liquid phase, T = 359.98 K): 239.9 Pa
vapor pressure p ([1]; liquid phase, T = 361.98 K): 266.2 Pa
vapor pressure p ([1]; liquid phase, T = 363.92 K): 297.7 Pa
vapor pressure p ([1]; liquid phase, T = 365.92 K): 333.0 Pa
vapor pressure p ([1]; liquid phase, T = 367.87 K): 372.6 Pa
vapor pressure p ([1]; liquid phase, T = 369.87 K): 415.4 Pa
vapor pressure p ([1]; liquid phase, T = 371.82 K): 456.8 Pa
vapor pressure p ([1]; liquid phase, T = 373.82 K): 506.8 Pa
vapor pressure p ([1]; liquid phase, T = 375.77 K): 559.6 Pa
vapor pressure p ([1]; liquid phase, T = 377.79 K): 620.3 Pa
vapor pressure p ([1]; liquid phase, T = 379.71 K): 682.3 Pa
vapor pressure p ([1]; liquid phase, T = 381.71 K): 755.4 Pa
vapor pressure p ([1]; liquid phase, T = 383.62 K): 827.1 Pa
vapor pressure p ([1]; supercooled liquid, T = 334.28 K): 48.38 ^d Pa
vapor pressure p ([1]; supercooled liquid, T = 335.87 K): 53.45 ^d Pa
vapor pressure p ([1]; supercooled liquid, T = 338.22 K): 62.48 ^d Pa
vapor pressure p ([1]; supercooled liquid, T = 340.16 K): 71.24 ^d Pa
vapor pressure p ([1]; supercooled liquid, T = 342.24 K): 81.73 ^d Pa
Gibbs energy of hydration ΔhydrGm° [2]: -4.73 kcal/mol
log10(KHpc/kPa·m^3·mol^−1) Henry's law volatility constant [2]: −3.07
KHpc×10^3 Henry's law volatility constant [2]: 0.851 kPa·m^3·mol^−1
pH of the saturated solution [3]: 6.39

O=Cc1ccc(Cl)cc1 [4-Chlorobenzaldehyde]
vapor pressure p ([1]; crystalline phase, T = 267.45 K): 0.57 Pa
vapor pressure p ([1]; crystalline phase, T = 269.33 K): 0.72 Pa
vapor pressure p ([1]; crystalline phase, T = 271.42 K): 0.93 Pa
vapor pressure p ([1]; crystalline phase, T = 273.29 K): 1.15 Pa
vapor pressure p ([1]; crystalline phase, T = 275.39 K): 1.48 Pa
vapor pressure p ([1]; crystalline phase, T = 277.25 K): 1.84 Pa
vapor pressure p ([1]; crystalline phase, T = 279.32 K): 2.33 Pa
vapor pressure p ([1]; crystalline phase, T = 281.20 K): 2.90 Pa
vapor pressure p ([1]; crystalline phase, T = 283.26 K): 3.60 Pa
vapor pressure p ([1]; crystalline phase, T = 285.16 K): 4.49 Pa
vapor pressure p ([1]; crystalline phase, T = 287.22 K): 5.65 Pa
vapor pressure p ([1]; crystalline phase, T = 289.23 K): 6.93 Pa
vapor pressure p ([1]; crystalline phase, T = 291.18 K): 8.49 Pa
vapor pressure p ([1]; crystalline phase, T = 293.07 K): 10.45 Pa
vapor pressure p ([1]; crystalline phase, T = 295.14 K): 12.75 Pa
vapor pressure p ([1]; crystalline phase, T = 297.14 K): 15.67 Pa
vapor pressure p ([1]; crystalline phase, T = 299.12 K): 19.07 Pa
vapor pressure p ([1]; crystalline phase, T = 300.99 K): 23.01 Pa
vapor pressure p ([1]; crystalline phase, T = 303.05 K): 28.05 Pa
vapor pressure p ([1]; crystalline phase, T = 305.04 K): 34.26 Pa
vapor pressure p ([1]; crystalline phase, T = 306.98 K): 40.71 Pa
vapor pressure p ([1]; crystalline phase, T = 309.01 K): 49.06 Pa
vapor pressure p ([1]; crystalline phase, T = 310.96 K): 58.06 Pa
vapor pressure p ([1]; crystalline phase, T = 312.92 K): 69.28 Pa
vapor pressure p ([1]; crystalline phase, T = 314.91 K): 82.74 Pa
vapor pressure p ([1]; liquid phase, T = 319.87 K): 125.4 Pa
vapor pressure p ([1]; liquid phase, T = 321.85 K): 143.8 Pa
vapor pressure p ([1]; liquid phase, T = 323.75 K): 162.2 Pa
vapor pressure p ([1]; liquid phase, T = 325.71 K): 183.0 Pa
vapor pressure p ([1]; liquid phase, T = 327.66 K): 206.8 Pa
vapor pressure p ([1]; liquid phase, T = 329.70 K): 235.5 Pa
vapor pressure p ([1]; liquid phase, T = 331.69 K): 264.4 Pa
vapor pressure p ([1]; liquid phase, T = 333.66 K): 298.2 Pa
vapor pressure p ([1]; liquid phase, T = 335.64 K): 336.0 Pa
vapor pressure p ([1]; liquid phase, T = 337.61 K): 375.5 Pa
vapor pressure p ([1]; liquid phase, T = 339.57 K): 415.3 Pa and 416.0 Pa
vapor pressure p ([1]; liquid phase, T = 341.56 K): 468.0 Pa
vapor pressure p ([1]; liquid phase, T = 343.52 K): 520.0 Pa
vapor pressure p ([1]; liquid phase, T = 345.50 K): 578.0 Pa
vapor pressure p ([1]; liquid phase, T = 347.47 K): 640.9 Pa
vapor pressure p ([1]; liquid phase, T = 347.50 K): 641.0 Pa
vapor pressure p ([1]; liquid phase, T = 349.45 K): 711.8 Pa
vapor pressure p ([1]; liquid phase, T = 351.43 K): 788.7 Pa
vapor pressure p ([1]; liquid phase, T = 353.30 K): 864.6 Pa
vapor pressure p ([1]; liquid phase, T = 355.30 K): 958.0 Pa
vapor pressure p ([1]; liquid phase, T = 357.33 K): 1058 Pa
vapor pressure p ([1]; supercooled liquid, T = 305.70 K): 48.17 ^d Pa
vapor pressure p ([1]; supercooled liquid, T = 307.91 K): 56.22 ^d Pa
vapor pressure p ([1]; supercooled liquid, T = 309.86 K): 65.09 ^d Pa
vapor pressure p ([1]; supercooled liquid, T = 311.92 K): 75.03 ^d Pa
vapor pressure p ([1]; supercooled liquid, T = 313.90 K): 86.06 ^d Pa
vapor pressure p ([1]; supercooled liquid, T = 315.83 K): 96.33 ^d Pa
vapor pressure p ([1]; supercooled liquid, T = 317.92 K): 110.0 ^d Pa
Gibbs energy of hydration ΔhydrGm° [2]: -4.23 kcal/mol
log10(KHpc/kPa·m^3·mol^−1) Henry's law volatility constant [2]: −2.71
KHpc×10^3 Henry's law volatility constant [2]: 1.95 kPa·m^3·mol^−1
pH of the saturated solution [3]: 6.61
